BindingDB's records for doi:10.1016/S0960-894X(97)00090-5 (1997)
Peptide text beside a SMILES is read from it.

Experiment: The concentration of compound required to prevent 50 percent of cells from adhering to MAdCAM-1

| SMILES | IC50 [µM] |
| --- | --- |
| CC(=O)N[C@@H](CC(C)C)C(=O)NCC(CC(=O)O)S(=O)(=O)N[C@H](C(N)=O)[C@@H](C)O (stereo partly drawn) [4-((S)-2-Acetylamino-4-methyl-pentanoylamino)-3-((S)-1-carbamoyl-2-(R)-hydroxy-propylsulfamoyl)-butyric acid] | > 500 |
| CC(=O)N[C@@H](CC(C)C)C(=O)NCC(CC(=O)O)S(=O)(=O)N[C@H](C(N)=O)C(C)C (stereo partly drawn) [4-((S)-2-Acetylamino-4-methyl-pentanoylamino)-3-((S)-1-carbamoyl-2-methyl-propylsulfamoyl)-butyric acid] | 219 |
| CC(=O)N[C@@H](CC(C)C)C(=O)N[C@@H](CC(=O)O)C(=O)N[C@H](C(N)=O)[C@@H](C)O [(S)-3-((S)-2-Acetylamino-4-methyl-pentanoylamino)-N-((1S,2R)-1-carbamoyl-2-hydroxy-propyl)-succinamic acid] (Ac-Leu-Asp-Thr-NH2) | 276 |
| CC(=O)N[C@@H](CC(C)C)C(=O)N[C@@H](CC(=O)O)C(=O)N[C@H](C(N)=O)C(C)C [(S)-3-((S)-2-Acetylamino-4-methyl-pentanoylamino)-N-((S)-1-carbamoyl-2-methyl-propyl)-succinamic acid] (Ac-Leu-Asp-Val-NH2) | 126 |
